This note sets out measurements from patent US20240067693A1, “POLYPEPTIDES AND USES THEREOF” (MEDIMMUNE LIMITED, priority 2020, published 2024).

Numbered stars: 1 amine (or outer) side, 2 acyl side, 3 side chain; on linkers, the order of the positions; unused ones are H or OH. Bridge positions count the residues as written; N and C are the ends. Square brackets hold non-standard residues; d marks the D form. Side chains are listed from the residue outwards. Peptide text beside a SMILES is read from it. * marks the point of attachment. C20 diacid = O=C(O)CCCCCCCCCCCCCCCCCCC(=O)*; C18 diacid = O=C(O)CCCCCCCCCCCCCCCCC(=O)*; γGlu = O=C(O)[C@H](CCC(=O)[*:2])N[*:1]; Hyp = O=C(O)[C@@H]1C[C@@H](O)CN1; Aib = CC(C)(N)C(=O)O

Assay [1] addresses T1, human amylin receptor (calcitonin receptor co-expressed with receptor activity modifying protein, RAMP3) (hAMYR3) (Homo sapiens, UniProt O60896+P30988).
T1 construct: expressed in transfected cells
T1 sequence (P30988 25-474): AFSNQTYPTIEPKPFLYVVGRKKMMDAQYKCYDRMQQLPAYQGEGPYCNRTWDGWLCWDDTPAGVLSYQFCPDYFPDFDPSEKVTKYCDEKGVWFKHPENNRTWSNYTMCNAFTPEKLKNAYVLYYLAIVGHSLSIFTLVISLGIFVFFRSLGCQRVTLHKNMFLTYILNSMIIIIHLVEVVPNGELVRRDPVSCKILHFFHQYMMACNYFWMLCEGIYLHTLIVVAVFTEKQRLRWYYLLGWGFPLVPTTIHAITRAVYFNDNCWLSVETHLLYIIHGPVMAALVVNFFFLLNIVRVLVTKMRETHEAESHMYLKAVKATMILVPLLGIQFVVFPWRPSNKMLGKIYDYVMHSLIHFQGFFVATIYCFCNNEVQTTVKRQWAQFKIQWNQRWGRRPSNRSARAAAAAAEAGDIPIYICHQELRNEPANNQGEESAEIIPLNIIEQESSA
T1 sequence (O60896 24-148 partner): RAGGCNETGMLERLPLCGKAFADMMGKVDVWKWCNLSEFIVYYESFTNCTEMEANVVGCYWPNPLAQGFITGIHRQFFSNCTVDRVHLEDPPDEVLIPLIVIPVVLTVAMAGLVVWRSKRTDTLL
The assay can be described thus: cAMP production in 1321N1 cells with stable recombinant expression of human amylin receptor (hAMYR3). The assay is classed as cell-based. The following applies: for Ratio (selectivity hAMYR vs hCTR, ratio of EC50 values at the two receptors): EC50 hCTR / EC50 hAMYR3; for EC50: cAMP, 1321N1 cells, assay buffer with 0.1% BSA, read-out: EC50 (pM) hAMYR3. The gist of the method:
(§1)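 Thawed cells in HBSS/0.1% BSA/25 mM HEPES pH 7.4 with 0.5 mM IBMX were incubated with peptides 30 min at room temperature; cAMP read by HTRF. EC50 from 4-parameter fit of % activation relative to maximal amylin or calcitonin effect.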

The target in assay [2] is T2, human calcitonin receptor (hCTR) (Homo sapiens, UniProt P30988).
T2 construct: expressed in transfected cells
T2 sequence (P30988 25-474): T1 sequence (P30988 25-474)
The assay can be described thus: cAMP production in 1321N1 cells with stable recombinant expression of human calcitonin receptor (hCTR). As to conditions: cAMP, 1321N1 cells, assay buffer with 0.1% BSA; read-out: EC50 (pM) hCTR. It counts as cell-based. The gist of the method: as §1
(Changes in cAMP serve as a functional read-out for many G protein-coupled receptors.)

Broadly, the EC50 is the concentration that produces a half-maximal response.

`CC[C@H](C)[C@H](NC(=O)[C@@H]1CCCN1C(=O)CNC(=O)[C@H](Cc1ccccc1)NC(=O)[C@H](CC(N)=O)NC(=O)C(C)(C)NC(=O)[C@H](CO)NC(=O)[C@H](CO)NC(=O)[C@H](Cc1c[nH]cn1)NC(=O)[C@@H](NC(=O)[C@H](CC(C)C)NC(=O)[C@H](Cc1ccccc1)NC(=O)[C@H](CC(N)=O)NC(=O)[C@H](C)NC(=O)[C@H](CC(C)C)NC(=O)[C@H](CCCNC(=N)N)NC(=O)[C@H](CCC(N)=O)NC(=O)[C@@H](NC(=O)[C@H](C)NC(=O)[C@@H]1CSSC[C@H](NC(=O)[C@@H](N)CCCCNC(=O)CC[C@H](NC(=O)CCCCCCCCCCCCCCCCC(=O)O)C(=O)O)C(=O)N[C@@H](CC(N)=O)C(=O)N[C@@H]([C@@H](C)O)C(=O)N[C@@H](C)C(=O)N[C@@H]([C@@H](C)O)C(=O)N1)[C@@H](C)O)C(C)C)C(=O)N[C@H](CC(C)C)C(=O)N1CCC[C@H]1C(=O)N1CCC[C@H]1C(=O)N[C@H](C(=O)N[C@@H](CC(N)=O)C(=O)N[C@H](C(=O)NCC(=O)N[C@@H](CO)C(=O)N[C@@H](CC(N)=O)C(=O)N[C@H](C(=O)N[C@@H](Cc1ccc(O)cc1)C(N)=O)[C@@H](C)O)C(C)C)[C@@H](C)O` [Peptide 59, K(γE-C18diacid)[CNTATC]ATQRLANFLVHSS(Aib)NFGPI(dL)PPTNVGSNTY-amide] (H-K([γGlu-C18 diacid])CNTATCATQRLANFLVHSS[Aib]NFGPI[dL]PPTNVGSNTY-NH2; disulfide 2-7; N-terminus assumed): the “Ratio (selectivity hAMYR vs hCTR, ratio of EC50 values at the two receptors)” value in assay [1] is 5. In addition, the EC50 turned out to be 157 pM in assay [1] and 809 pM in assay [2].
As for `CC[C@H](C)[C@H](NC(=O)[C@@H]1CCCN1C(=O)CNC(=O)[C@H](Cc1ccccc1)NC(=O)[C@H](CC(N)=O)NC(=O)C(C)(C)NC(=O)[C@H](CO)NC(=O)[C@H](CO)NC(=O)[C@H](Cc1c[nH]cn1)NC(=O)[C@H](CCCNC(=N)N)NC(=O)[C@H](CC(C)C)NC(=O)[C@H](Cc1ccccc1)NC(=O)[C@H](CC(N)=O)NC(=O)[C@H](C)NC(=O)[C@H](CC(C)C)NC(=O)[C@H](CCCNC(=N)N)NC(=O)[C@H](CCC(N)=O)NC(=O)[C@@H](NC(=O)[C@H](C)NC(=O)[C@@H]1CSSC[C@H](NC(=O)[C@@H](N)CCCCNC(=O)CC[C@H](NC(=O)CC[C@H](NC(=O)CCCCCCCCCCCCCCCCC(=O)O)C(=O)O)C(=O)O)C(=O)N[C@@H](CC(N)=O)C(=O)N[C@@H]([C@@H](C)O)C(=O)N[C@@H](C)C(=O)N[C@@H]([C@@H](C)O)C(=O)N1)[C@@H](C)O)C(=O)N[C@@H](CC(C)C)C(=O)N1CCC[C@H]1C(=O)N1CCC[C@H]1C(=O)N[C@H](C(=O)N[C@@H](CC(N)=O)C(=O)N[C@H](C(=O)NCC(=O)N[C@@H](CO)C(=O)NC(C)(C)C(=O)N[C@H](C(=O)N[C@@H](Cc1ccc(O)cc1)C(N)=O)[C@@H](C)O)C(C)C)[C@@H](C)O` [Peptide 92, K(γE-γE-C18diacid)[CNTATC]ATQRLANFLRHSS(Aib)NFGPILPPTNVGS(Aib)TY-amide] (H-K([γGlu-γGlu-C18 diacid])CNTATCATQRLANFLRHSS[Aib]NFGPILPPTNVGS[Aib]TY-NH2; disulfide 2-7; N-terminus assumed), in assay [1], the “Ratio (selectivity hAMYR vs hCTR, ratio of EC50 values at the two receptors)” value stood at 130 and the EC50 turned out to be 341 pM. Besides, in assay [2], the EC50 was 44400 pM.
The like results for `CC[C@H](C)[C@H](NC(=O)[C@@H]1CCCN1C(=O)CNC(=O)[C@H](Cc1ccccc1)NC(=O)[C@H](Cc1c[nH]cn1)NC(=O)[C@H](CC(N)=O)NC(=O)[C@H](CO)NC(=O)[C@H](CO)NC(=O)[C@H](Cc1c[nH]cn1)NC(=O)C(C)(C)NC(=O)[C@H](CC(C)C)NC(=O)[C@H](Cc1ccccc1)NC(=O)[C@H](CC(N)=O)NC(=O)[C@H](C)NC(=O)[C@H](CC(C)C)NC(=O)[C@H](CCCNC(=N)N)NC(=O)[C@H](CCC(N)=O)NC(=O)[C@@H](NC(=O)[C@H](C)NC(=O)[C@@H]1CSSC[C@H](NC(=O)[C@H](CCCCN)NC(=O)[C@@H](N)CCCCNC(=O)CC[C@H](NC(=O)CCCCCCCCCCCCCCCCC(=O)O)C(=O)O)C(=O)N[C@@H](CC(N)=O)C(=O)N[C@@H]([C@@H](C)O)C(=O)N[C@@H](C)C(=O)N[C@@H]([C@@H](C)O)C(=O)N1)[C@@H](C)O)C(=O)N[C@@H](CC(C)C)C(=O)N1CCC[C@H]1C(=O)N1CCC[C@H]1C(=O)N[C@H](C(=O)N[C@@H](CC(N)=O)C(=O)N[C@H](C(=O)NCC(=O)N[C@@H](CO)C(=O)N[C@@H](CC(N)=O)C(=O)N[C@H](C(=O)N[C@@H](Cc1ccc(O)cc1)C(N)=O)[C@@H](C)O)C(C)C)[C@@H](C)O` [Peptide 135] (H-K([γGlu-C18 diacid])KCNTATCATQRLANFL[Aib]HSSNHFGPILPPTNVGSNTY-NH2; disulfide 3-8; N-terminus assumed) were, in that order, 1.2, 296 pM and 345 pM.
In the same order, the values of `CC[C@H](C)[C@H](NC(=O)[C@H](C)NC(=O)[C@@H]1C[C@@H](O)CN1C(=O)[C@H](Cc1ccccc1)NC(=O)[C@H](CC(N)=O)NC(=O)C(C)(C)NC(=O)[C@H](CO)NC(=O)[C@H](CO)NC(=O)[C@H](Cc1c[nH]cn1)NC(=O)[C@@H](NC(=O)[C@H](CC(C)C)NC(=O)[C@H](Cc1ccccc1)NC(=O)[C@H](CC(N)=O)NC(=O)[C@H](C)NC(=O)[C@H](CC(C)C)NC(=O)[C@H](CCCNC(=N)N)NC(=O)[C@H](CCC(N)=O)NC(=O)[C@@H](NC(=O)[C@H](C)NC(=O)[C@@H]1CSSC[C@H](NC(=O)[C@@H](N)CCCCNC(=O)CC[C@H](NC(=O)CC[C@H](NC(=O)CCCCCCCCCCCCCCCCCCC(=O)O)C(=O)O)C(=O)O)C(=O)N[C@@H](CC(N)=O)C(=O)N[C@@H]([C@@H](C)O)C(=O)N[C@@H](C)C(=O)N[C@@H]([C@@H](C)O)C(=O)N1)[C@@H](C)O)C(C)C)C(=O)N[C@@H](CC(C)C)C(=O)N[C@@H](CO)C(=O)N1CCC[C@H]1C(=O)N[C@H](C(=O)N[C@@H](CC(N)=O)C(=O)N[C@H](C(=O)NCC(=O)N[C@@H](CO)C(=O)N[C@@H](CC(N)=O)C(=O)N[C@H](C(=O)N[C@@H](Cc1ccc(O)cc1)C(N)=O)[C@@H](C)O)C(C)C)[C@@H](C)O` [Peptide 121, K(γE-γE-C20diacid)[CNTATC]ATQRLANFLVHSS(Aib)NF(Hyp)AILSPTNVGSNTY-amide] (H-K([γGlu-γGlu-C20 diacid])CNTATCATQRLANFLVHSS[Aib]NF[Hyp]AILSPTNVGSNTY-NH2; disulfide 2-7; N-terminus assumed) are 5, 1330 pM and 6070 pM.
In the same order, the values of `CC[C@H](C)[C@H](NC(=O)[C@@H]1CCCN1C(=O)CNC(=O)[C@H](Cc1ccccc1)NC(=O)[C@H](CC(N)=O)NC(=O)[C@H](Cc1c[nH]cn1)NC(=O)[C@H](CO)NC(=O)[C@H](CO)NC(=O)[C@H](Cc1c[nH]cn1)NC(=O)C(C)(C)NC(=O)[C@H](CC(C)C)NC(=O)[C@H](Cc1ccccc1)NC(=O)[C@H](CC(N)=O)NC(=O)[C@H](C)NC(=O)[C@H](CC(C)C)NC(=O)[C@H](CCCNC(=N)N)NC(=O)[C@H](CCC(N)=O)NC(=O)[C@@H](NC(=O)[C@H](C)NC(=O)[C@@H]1CSSC[C@H](NC(=O)[C@H](CCCCN)NC(=O)[C@@H](N)CCCCNC(=O)CC[C@H](NC(=O)CCCCCCCCCCCCCCCCC(=O)O)C(=O)O)C(=O)N[C@@H](CC(N)=O)C(=O)N[C@@H]([C@@H](C)O)C(=O)N[C@@H](C)C(=O)N[C@@H]([C@@H](C)O)C(=O)N1)[C@@H](C)O)C(=O)N[C@@H](CC(C)C)C(=O)N1CCC[C@H]1C(=O)N1CCC[C@H]1C(=O)N[C@H](C(=O)N[C@@H](CC(N)=O)C(=O)N[C@H](C(=O)NCC(=O)N[C@@H](CO)C(=O)N[C@@H](CC(N)=O)C(=O)N[C@H](C(=O)N[C@@H](Cc1ccc(O)cc1)C(N)=O)[C@@H](C)O)C(C)C)[C@@H](C)O` [Peptide 131] (H-K([γGlu-C18 diacid])KCNTATCATQRLANFL[Aib]HSSHNFGPILPPTNVGSNTY-NH2; disulfide 3-8) are 20.5, 737 pM and 15100 pM.
